The supplement of paper PMC13380429

Key:
Vero E6 [1] = experiment: drug sensitivity score (DSS) for viability; higher = more toxic; extreme values may be limits of the assay; conditions: 72 h
U2OS [2] = experiment: as above; conditions: 72 h
HepG2 [3] = experiment: as above; conditions: 72 h
Calu-3 [4] = experiment: as above; conditions: 72 h
Caco-2 [5] = experiment: as above; conditions: 72 h
Vero E6 [6] = experiment: relative viability EC50 (midpoint between 100% and the lowest measured viability); higher = less toxic; conditions: 72 h
U2OS [7] = experiment: as above; conditions: 72 h
HepG2 [8] = experiment: as above; conditions: 72 h
Calu-3 [9] = experiment: as above; conditions: 72 h
Caco-2 [10] = experiment: as above; conditions: 72 h
Vero E6 [11] = experiment: cell viability relative to DMSO; higher = less toxic; conditions: 72 h
U2OS [12] = experiment: as above; conditions: 72 h
HepG2 [13] = experiment: as above; conditions: 72 h
Calu-3 [14] = experiment: as above; conditions: 72 h
Caco-2 [15] = experiment: as above; conditions: 72 h
[16] = system: A549-ACE2 infected with SARS-CoV-2; experiment: cell count relative to DMSO; higher = less toxic; conditions: 24 h
[17] = system: A549-ACE2 infected with SARS-CoV-2; experiment: morphology score (similarity to uninfected cells); higher = more like uninfected cells; conditions: 24 h
[18] = system: A549-ACE2 infected with SARS-CoV-2; experiment: SARS-CoV-2 infection rate relative to DMSO; higher = more infection; conditions: 24 h
A549-ACE2 = experiment: drug-induced phospholipidosis relative to tamoxifen; higher = more phospholipidosis

N=C(N)NCCC[C@@H](N)C(=O)N[C@@H](CCCNC(=N)N)C(=O)N1CCC[C@H]1C(=O)N1C[C@H](O)C[C@H]1C(=O)NCC(=O)N[C@@H](Cc1cccs1)C(=O)N[C@@H](CO)C(=O)N1Cc2ccccc2C[C@@H]1C(=O)N1[C@H](C(=O)N[C@@H](CCCNC(=N)N)C(=O)O)C[C@@H]2CCCC[C@@H]21 [icatibant-acetate]
Conditions | drug sensitivity score | relative viability EC50 [µM]
Caco-2 [5] | 0 | –
Caco-2 [10] | – | > 10
Calu-3 [4] | 0 | –
Calu-3 [9] | – | > 10
HepG2 [3] | 0 | –
HepG2 [8] | – | > 10
U2OS [2] | 0 | –
U2OS [7] | – | > 10
Vero E6 [1] | 0 | –
Vero E6 [6] | – | > 10

cell viability [%]
Conditions | Caco-2 [15] | Calu-3 [14] | HepG2 [13] | U2OS [12] | Vero E6 [11]
1 nM | 96 | 107 | 91 | 102 | 99
10 nM | 100 | 92.8 | 93.3 | 98.8 | 97.9
100 nM | 90 | 98 | 84.7 | 103 | 101
1000 nM | 91.4 | 98.6 | 102 | 98.1 | 101
10000 nM | 103 | 104 | 102 | 101 | 101

Cc1cc(C)nc(NS(=O)(=O)c2ccc(NC(=S)NC(=O)COc3ccc(Br)cc3Cl)cc2)n1 [ZCL-278]
Conditions | drug sensitivity score | relative viability EC50 [µM]
Caco-2 [5] | 0 | –
Caco-2 [10] | – | > 10
Calu-3 [4] | 0 | –
Calu-3 [9] | – | > 10
HepG2 [3] | 0 | –
HepG2 [8] | – | > 10
U2OS [2] | 0 | –
U2OS [7] | – | > 10
Vero E6 [1] | 0 | –
Vero E6 [6] | – | > 10

cell viability [%]
Conditions | Caco-2 [15] | Calu-3 [14] | HepG2 [13] | U2OS [12] | Vero E6 [11]
1 nM | 97.7 | 98.4 | 108 | 95.6 | 93.4
10 nM | 102 | 94.8 | 98.1 | 100 | 97.5
100 nM | 104 | 103 | 100 | 93.5 | 101
1000 nM | 92.2 | 104 | 96.4 | 97.9 | 103
10000 nM | 98.7 | 107 | 98.4 | 93.8 | 95.9

O=C(O)CCCc1ccc(N(CCCl)CCCl)cc1 [chlorambucil]
Conditions | drug sensitivity score | relative viability EC50 [µM]
Caco-2 [5] | 0 | –
Caco-2 [10] | – | > 10
Calu-3 [4] | 0 | –
Calu-3 [9] | – | > 10
HepG2 [3] | 0.3 | –
HepG2 [8] | – | > 10
U2OS [2] | 0 | –
U2OS [7] | – | > 10
Vero E6 [1] | 0 | –
Vero E6 [6] | – | > 10

cell viability [%]
Conditions | Caco-2 [15] | Calu-3 [14] | HepG2 [13] | U2OS [12] | Vero E6 [11]
1 nM | 94.9 | 93 | 103 | 104 | 102
10 nM | 90.6 | 102 | 100 | 99.7 | 102
100 nM | 98.2 | 94.5 | 104 | 101 | 100
1000 nM | 91.8 | 101 | 101 | 97.3 | 98.2
10000 nM | 90.2 | 97.6 | 83.9 | 105 | 97.9

O=C(OCC(O)CO)c1ccccc1Nc1ccnc2cc(Cl)ccc12 (stereo not given) [glafenine]
Conditions | drug sensitivity score | relative viability EC50 [µM]
Caco-2 [5] | 0 | –
Caco-2 [10] | – | > 10
Calu-3 [4] | 0 | –
Calu-3 [9] | – | > 10
HepG2 [3] | 0 | –
HepG2 [8] | – | > 10
U2OS [2] | 0 | –
U2OS [7] | – | > 10
Vero E6 [1] | 0 | –
Vero E6 [6] | – | > 10

Conditions | SARS-CoV-2 infection rate, [18] [%] | cell count, [16] [%] | cell viability, Caco-2 [15] [%] | cell viability, Calu-3 [14] [%] | cell viability, HepG2 [13] [%] | cell viability, U2OS [12] [%] | cell viability, Vero E6 [11] [%] | morphology score, [17]
1 nM | – | – | 84.7 | 89.4 | 99.8 | 97.2 | 101 | –
10 nM | – | – | 95.9 | 100 | 81.1 | 102 | 90.5 | –
100 nM | – | – | 66.6 | 87.7 | 97.4 | 94.8 | 102 | –
0.3 µM | 94 | 103 | – | – | – | – | – | 0.2
1000 nM | – | – | 89.5 | 106 | 91 | 98.2 | 86.9 | –
3 µM | 88 | 85 | – | – | – | – | – | 0.28
10 µM | 97 | 115 | – | – | – | – | – | 0.42
10000 nM | – | – | 95.7 | 94 | 94.3 | 89 | 107 | –
30 µM | 53 | 104 | – | – | – | – | – | 0.74

drug-induced phospholipidosis [%], A549-ACE2
Conditions | 0.3 µM | 0.833333 µM | 3.33333 µM | 6.66667 µM | 10 µM | 30 µM
24 h | 0.74 | 1.36 | 2 | 1.93 | 2.17 | 23.8
48 h | 0.09 | -3.04 | 0.5 | 3.25 | 3.8 | 23.1
72 h | -1.15 | -3.87 | -2.67 | 0.336 | 3.93 | 30.1

CC(C)(O)C(=O)Nc1ccc([N+](=O)[O-])c(C(F)(F)F)c1 [2-hydroxyflutamide]
Conditions | drug sensitivity score | relative viability EC50 [µM]
Caco-2 [5] | 0 | –
Caco-2 [10] | – | > 10
Calu-3 [4] | 0 | –
Calu-3 [9] | – | > 10
HepG2 [3] | 0 | –
HepG2 [8] | – | > 10
U2OS [2] | 0 | –
U2OS [7] | – | > 10
Vero E6 [1] | 0 | –
Vero E6 [6] | – | > 10

cell viability [%]
Conditions | Caco-2 [15] | Calu-3 [14] | HepG2 [13] | U2OS [12] | Vero E6 [11]
1 nM | 97.3 | 100 | 97.6 | 99 | 100
10 nM | 90.4 | 97.2 | 99.3 | 105 | 102
100 nM | 90 | 97.8 | 92.6 | 103 | 102
1000 nM | 96.5 | 101 | 98 | 97.1 | 93.9
10000 nM | 87.9 | 107 | 98.1 | 94.6 | 97
